Test: refractive index (other wavelength) (dimensionless); xn = mol fraction of the nth substance listed
Conditions: 95.99 kPa, Liquid, Standard Abbe refractometry

OCCOCCOCCO [triethylene glycol] + O
refractive index
Conditions | Wavelength=404.7 nm | Wavelength=435.8 nm | Wavelength=486.1 nm | Wavelength=546.1 nm | Wavelength=587.6 nm | Wavelength=589.3 nm | Wavelength=632.8 nm | Wavelength=644 nm | Wavelength=706.5 nm
293.15 K, x2 = 0 | 1.46928 | 1.46569 | 1.46151 | 1.45803 | 1.45619 | 1.45612 | 1.45455 | 1.4542 | 1.45248
293.15 K, x2 = 0.1056 | 1.46776 | 1.46418 | 1.46003 | 1.45656 | 1.45474 | 1.45467 | 1.45311 | 1.45275 | 1.45102
293.15 K, x2 = 0.2069 | 1.46585 | 1.46229 | 1.45817 | 1.45473 | 1.45293 | 1.45286 | 1.45131 | 1.45095 | 1.44922
293.15 K, x2 = 0.3104 | 1.46244 | 1.45892 | 1.45478 | 1.45137 | 1.44957 | 1.4495 | 1.44796 | 1.4476 | 1.44588
293.15 K, x2 = 0.4844 | 1.45861 | 1.45514 | 1.45102 | 1.44764 | 1.44586 | 1.4458 | 1.44426 | 1.44391 | 1.44221
293.15 K, x2 = 0.5016 | 1.45756 | 1.45412 | 1.45 | 1.44663 | 1.44485 | 1.44479 | 1.44326 | 1.44291 | 1.44121
293.15 K, x2 = 0.5952 | 1.45069 | 1.44731 | 1.44328 | 1.43997 | 1.4382 | 1.43814 | 1.43663 | 1.43669 | 1.4346
293.15 K, x2 = 0.6016 | 1.45072 | 1.44734 | 1.44332 | 1.44002 | 1.43827 | 1.43821 | 1.4367 | 1.43635 | 1.43464
293.15 K, x2 = 0.6788 | 1.44395 | 1.4406 | 1.4367 | 1.43344 | 1.43171 | 1.43165 | 1.4301 | 1.42981 | 1.42813
293.15 K, x2 = 0.7835 | 1.4342 | 1.43091 | 1.42716 | 1.42397 | 1.4223 | 1.42224 | 1.42078 | 1.42043 | 1.41874
293.15 K, x2 = 0.8184 | 1.42884 | 1.42558 | 1.42185 | 1.41872 | 1.41706 | 1.417 | 1.41555 | 1.4152 | 1.41353
293.15 K, x2 = 0.8473 | 1.42267 | 1.41949 | 1.41582 | 1.41276 | 1.41114 | 1.41108 | 1.40964 | 1.4093 | 1.40762
293.15 K, x2 = 0.8719 | 1.41529 | 1.41214 | 1.40852 | 1.40547 | 1.40386 | 1.4038 | 1.40238 | 1.40204 | 1.40038
293.15 K, x2 = 0.8926 | 1.40703 | 1.40391 | 1.40033 | 1.39734 | 1.39576 | 1.3957 | 1.3943 | 1.39396 | 1.39232
293.15 K, x2 = 0.9106 | 1.40148 | 1.39844 | 1.39495 | 1.392 | 1.39044 | 1.39038 | 1.38899 | 1.38865 | 1.387
293.15 K, x2 = 0.9254 | 1.39081 | 1.38783 | 1.38446 | 1.38156 | 1.38004 | 1.37998 | 1.3786 | 1.37827 | 1.37665
293.15 K, x2 = 0.9303 | 1.39206 | 1.38905 | 1.38562 | 1.38273 | 1.3812 | 1.38114 | 1.37976 | 1.37942 | 1.37778
293.15 K, x2 = 0.9391 | 1.38808 | 1.38514 | 1.38176 | 1.37891 | 1.37736 | 1.37731 | 1.37592 | 1.37559 | 1.37396
293.15 K, x2 = 0.951 | 1.38101 | 1.37811 | 1.37479 | 1.37198 | 1.37045 | 1.37039 | 1.36903 | 1.36871 | 1.36871
293.15 K, x2 = 0.9599 | 1.37477 | 1.37194 | 1.36866 | 1.36589 | 1.36436 | 1.36431 | 1.36296 | 1.36264 | 1.36106
293.15 K, x2 = 0.9708 | 1.36673 | 1.36396 | 1.36077 | 1.35803 | 1.35657 | 1.35652 | 1.3552 | 1.35488 | 1.35328
293.15 K, x2 = 0.979 | 1.36151 | 1.35879 | 1.35566 | 1.35294 | 1.35147 | 1.35142 | 1.35011 | 1.3498 | 1.34824
293.15 K, x2 = 0.9867 | 1.35527 | 1.35259 | 1.34949 | 1.34676 | 1.34532 | 1.34526 | 1.34398 | 1.34367 | 1.3421
293.15 K, x2 = 0.9936 | 1.34883 | 1.34624 | 1.34314 | 1.34052 | 1.33907 | 1.33902 | 1.33774 | 1.33744 | 1.33593
298.15 K, x2 = 0 | 1.46749 | 1.4639 | 1.45975 | – | – | – | – | – | –
298.15 K, x2 = 0.1056 | 1.46604 | 1.46248 | 1.45834 | – | – | – | – | – | –
298.15 K, x2 = 0.2069 | 1.46428 | 1.46074 | 1.45661 | – | – | – | – | – | –
298.15 K, x2 = 0.3104 | 1.46096 | 1.45745 | 1.45333 | – | – | – | – | – | –
298.15 K, x2 = 0.4844 | 1.45699 | 1.45354 | 1.44943 | – | – | – | – | – | –
298.15 K, x2 = 0.5016 | 1.45596 | 1.45252 | – | – | – | – | – | – | –
298.15 K, x2 = 0.5952 | 1.44911 | 1.44572 | – | – | – | – | – | – | –
298.15 K, x2 = 0.6016 | 1.44913 | 1.44575 | – | – | – | – | – | – | –
298.15 K, x2 = 0.6788 | 1.44244 | 1.43909 | – | – | – | – | – | – | –
298.15 K, x2 = 0.7835 | 1.43274 | 1.42946 | – | – | – | – | – | – | –
298.15 K, x2 = 0.8184 | 1.42742 | 1.42417 | – | – | – | – | – | – | –
298.15 K, x2 = 0.8473 | 1.42101 | 1.41783 | – | – | – | – | – | – | –
298.15 K, x2 = 0.8719 | 1.41326 | 1.41082 | – | – | – | – | – | – | –
298.15 K, x2 = 0.8926 | 1.40601 | 1.40293 | – | – | – | – | – | – | –
298.15 K, x2 = 0.9106 | 1.40032 | 1.39727 | – | – | – | – | – | – | –
298.15 K, x2 = 0.9254 | 1.38959 | 1.38664 | – | – | – | – | – | – | –
298.15 K, x2 = 0.9303 | 1.39111 | 1.38813 | – | – | – | – | – | – | –
298.15 K, x2 = 0.9391 | 1.38696 | 1.38402 | – | – | – | – | – | – | –
298.15 K, x2 = 0.951 | 1.38004 | 1.37716 | – | – | – | – | – | – | –
298.15 K, x2 = 0.9599 | 1.374 | 1.37117 | – | – | – | – | – | – | –
298.15 K, x2 = 0.9708 | 1.36592 | 1.36317 | – | – | – | – | – | – | –
298.15 K, x2 = 0.979 | 1.36072 | 1.35801 | – | – | – | – | – | – | –
298.15 K, x2 = 0.9867 | 1.35466 | 1.35198 | – | – | – | – | – | – | –
298.15 K, x2 = 0.9936 | 1.34824 | 1.34565 | – | – | – | – | – | – | –
